The text below walks through data of US20250319206A1, “CRISPR/CAS GENE EDITING OF NEH4 AND/OR NEH5 DOMAINS IN NRF2” (Christina Care Gene Editing Institute, Inc., priority 2024, published 2025).

Data set [1] has as its system T98G cells. Briefly: Chemosensitivity testing, CellTiter-Glo 2.0, T98G cells. The class given is cell-based, human. To be noted: increasing concentrations of temozolomide and doxorubicin, 72 hr. The text has this:
FIG. 5A-D: Glioblastoma cells targeting exon 4 of NRF2 and assessment of chemotherapy response. T98G cells (FIG. 5A) and LN229 cells (FIG. 5B) were transfected with each respective gRNA. Genomic DNA from each cell population was isolated and amplified across exon 4 of the NRF2 gene. Amplicons were sanger sequenced and analyzed for indels at the CRISPR target site. Raw sequence files were aligned using the software program, DECODR, to display the indel pattern (listed as INDEL and frameshift %). (FIG. 5C-D) Chemosensitivity Testing in response to NRF2 targeting. Chemosensitivity was measured via CellTiter-Glo® 2.0 Assay. Untargeted and CRISPR targeted T98G cells were treated with increasing concentrations of (FIG. 5C) temozolomide or (FIG. 5D) doxorubicin for 72 hr. and then evaluated for cell viability. The average relative viability of cells normalized to the untreated Wt. was graphed. The error bars represent % CV.
Two human glioblastoma-derived cell lines were used to assess CRISPR activity and downstream effects of NRF2 knockout. FIG. 5 compares targeting exon 4 by two sgRNAs (sg76 (SEQ ID NO:16) and sg83 (SEQ ID NO:24)) and chemosensitivity assessment after targeting in both glioblastoma T98G and LN229 cell lines. Both cell lines were transfected using CRISPRmax lipofection with each respective gRNA and Cas9 mRNA. […]
For orientation: ATP-based viability assays read luminescence as a measure of living cells.

Data set [2] concerns KYSE-410 cells. In words: Chemosensitivity testing, CellTiter-Glo 2.0 cell viability, KYSE-410 cells. The class given is cell-based, Human. To be noted: for chemosensitivity to Cisplatin restored: cisplatin 72 hr; for sensitivity to cisplatin: exon 4 targeting. The text has this:
The data was plotted with the coefficient of variance.
To evaluate this approach for broad based applications, we executed the same protocol on KYSE-410 cells which originate from the poorly differentiated invasive esophageal squamous cell carcinoma resected from the cervical esophagus of a person prior to treatment^41. First, we confirmed that the DNA sequence of exon 2 and exon 4 was identical and amenable to targeting with CRISPRs sg3, sg76, or sg83 respectively (data not shown). While this may seem like a trivial matter, it is not, particularly with mutator phenotypes in transformed cells. Plated cells were allowed to recover for 24 hours prior to transfection with the same CRISPR complexes as described in FIG. 12. […] These overall levels are generally considered to be a complete genetic disruption of a mammalian gene. The percentage of frameshift mutations created by the action of these guide RNAs mimics those levels seen previously in FADU cells. […] The expression levels of NRF2, NQO1, HMOX1, and GCLC were also assessed, FIG. 13C. […] This analysis further supports that disruption of NRF2 in exon 4 has a higher impact on overcoming chemosensitivity by disrupting its function of activating downstream genes.

The subject of data set [3] is NRF2. Briefly: NRF2 western blot in Panc-1 cells. The class given is cell-based, Human. The settings on record: edited Panc-1 populations vs unedited, GAPDH loading control. As to the method: Panc-1 cell pellets were collected using a standard RIPA lysis buffer containing protease inhibitor cocktail. Total protein concentration of collected cells was then determined using BCA Protein Assay kit (Pierce, Rockford, IL, USA). The samples were boiled at 95° C. for 10 minutes and then underwent SDS-PAGE on a 10% Mini-PROTEAN TGX Stain-free Protein Gel (BioRad, Cat. 4568033) for 90 min at 100 V. The gel was then transferred to a nitrocellulose membrane using Trans-Blot Turbo Transfer Systems (BioRad, Hercules, CA, USA) with Trans-Blot Turbo RTA Mini 0.2 μm Nitrocellulose Transfer Kit (BioRad Cat. 1704158), mixed molecular weight program, 10 minutes. The blot was placed in 5% milk and blocked at room temperature on shaker for 2 hours. Incubation in primary NRF2 antibody was done overnight at 4° C. on shaker (1:1,000, Abcam ab62352). Membrane was then incubated at room temperature on shaker for 1 hour in NRF2 secondary (1:10,000, Abcam ab205718). The SuperSignal West Dura Extended Duration ECL (Pierce) kit was used on the LI-COR Odyssey FC to visualize bands. […]
On the technique in general: Immunoblotting shows a protein as a band on a membrane.

The subject of data set [4] is NRF2 gene. In words: NRF2 gene editing by Sanger sequencing/DECODR in A549 cells. The class given is cell-based, Human. The settings on record: 72 hours after transfection. The text has this: FIG. 4A-C: Lung adenocarcinoma cells targeting Exon 3, 4, 5 of NRF2 and assessment of chemotherapy response. (FIG. 4A) A549 cells were transfected with each respective gRNA. Genomic DNA from each cell population was isolated and amplified across exon 3, 4 or 5 of the NRF2 gene. Amplicons were sanger sequenced and analyzed for indels at the CRISPR target site. The graph presents the total editing efficiency listed as Indel and frameshifting indel % listed as FS. (FIG. 4B) Raw sequence files from cells targeted with gRNA 76 or gRNA 83 were aligned using the software program, DECODR, to display the indel pattern (listed as INDEL and %). […] Viability was measured via bioreduction of MTS to a formazan product. […] The average relative viability of cells in response to cisplatin is graphed above.
To assess CRISPR activity across various exons of NRF2, several gRNAs were designed along exon 3, 4 and 5 of the NRF2 gene in the A549 cell line. The A549 cells were transfected with each individually designed gRNA and cells were collected 72 hours after transfection. Genomic DNA was isolated, PCR amplified and Sanger sequenced. Editing activity was quantified using DECODR to deconvolute the indels present in at the cut site of each gRNA. […]

Take “sg76: gRNA targeting exon 4 of NRF2; TCACTTGTTCCTGATATTCC CGG (guide TCACTTGTTCCTGATATTCCCGG; listed as DNA, chemistry not given here)”: in data set [1], the sensitivity to treatment result is reported as “increased sensitivity to treatment”. For the same substance, in data set [2], the “chemosensitivity to Cisplatin restored” value was “restored” and the sensitivity to cisplatin result was “enhanced sensitivity to cisplatin”.
As for “sg83: gRNA targeting exon 4 of NRF2; GTAGCCCCTGTTGATTTAGA CGG (guide GTAGCCCCTGTTGATTTAGACGG; listed as DNA, chemistry not given here)”, in data set [3], the NRF2 protein knock down entry is “significant knockdown of protein”. Besides, the “editing efficiency (comparison among gRNAs)” value in data set [4] is recorded as “highest editing efficiency”. Further, the sensitivity to treatment result in data set [1] is reported as “increased sensitivity to treatment”. Moreover, in data set [2], the “chemosensitivity to Cisplatin restored” value is “restored” and the sensitivity to cisplatin result was “enhanced sensitivity to cisplatin”.
